Our source for the Ki values is BindingDB's records for doi:10.1111/j.1476-5381.1983.tb10541.x (University of Edinburgh, 1983).

Several values for one entry are separate records, joined by “and”; a condition that tells them apart may be missing. Identical values can stand only once.

This assay deals with T1, Thromboxane A2 receptor (Mus musculus, UniProt P30987).
T1 sequence (P30987 whole entry): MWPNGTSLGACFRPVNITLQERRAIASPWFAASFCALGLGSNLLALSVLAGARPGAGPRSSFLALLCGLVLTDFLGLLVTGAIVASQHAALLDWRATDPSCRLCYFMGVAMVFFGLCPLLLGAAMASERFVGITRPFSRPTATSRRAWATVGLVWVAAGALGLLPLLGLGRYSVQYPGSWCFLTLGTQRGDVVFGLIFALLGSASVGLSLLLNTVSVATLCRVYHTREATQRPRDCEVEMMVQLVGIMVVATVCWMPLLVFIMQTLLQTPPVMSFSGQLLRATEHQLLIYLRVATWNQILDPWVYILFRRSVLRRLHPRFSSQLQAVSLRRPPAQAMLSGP

Regarding `O=C(O)CCC/C=C/C[C@H]1C2C=CC(C2)[C@@H]1/C=C/[C@H](O)COc1ccc(F)cc1` (some centres undefined) [EP011], the affinity, expressed as Ki, was 1.2 µM.

With `CCCCC[C@H](O)/C=C/[C@@H]1[C@@H](/C=C\CCCC(=O)O)[C@H]2CO[C@@H]1C2` [11,9-epoxymethano PGH2], the affinity corresponds to a Ki of 0.36 µM.

Regarding `CCCCC[C@H](O)/C=C/C1[C@H](O)C[C@H](O)[C@@H]1C/C=C\CCCC(=O)O` (stereo partly drawn) [(Z)-7-[(1R,3R,5S)-3,5-Dihydroxy-2-((E)-(S)-3-hydroxy-oct-1-enyl)-cyclopentyl]-hept-5-enoic acid], the Ki (in general, the dissociation constant of the complex between target and ligand, obtained from inhibition or displacement) was above 10 µM.

On to `CCCCC[C@H](O)/C=C/[C@H]1[C@H](O)CC(=O)[C@@H]1C/C=C\CCCC(=O)O` [DINOPROSTONE], for which the Ki was above 10 µM.

`CCCCC[C@@H](O)/C=C/[C@H]1[C@H](O)CC(=O)[C@@H]1CCCCCCC(=O)O`: the Ki is above 10 µM.

`CCCCCC(O)CC=C1C(=O)C=CC1CC=CCCCC(=O)O` (centres undefined) [CAS_41598-07-6] displayed an inhibitory constant (Ki) above 10 µM.

`CCCCC[C@H](O)/C=C/[C@H]1O[C@H]2C[C@H](O2)[C@@H]1C/C=C\CCCC(=O)O` [CAS_57576-52-0] showed a Ki of 1.3 µM.

Consider `COc1cc(CC2NCCc3cc(O)c(O)cc32)cc(OC)c1OC` (centres undefined) [1-(3,4,5-Trimethoxy-benzyl)-1,2,3,4-tetrahydro-isoquinoline-6,7-diol], for which the Ki is above 10 µM.

In turn, `CCCCCC(O)C=CC1C2CCC(C2)C1CC=CCCCC(=O)O` (centres undefined) [9,11-ethano PGH2] yielded a Ki of 0.44 µM.

Compound `CCCCC[C@H](O)/C=C/C1C[C@H]2C[C@H](C2)[C@@H]1C/C=C\CCCC(=O)O` (some centres undefined) [CAS_74034-56-3] returned a Ki of 1.5 µM.

Compound `O=C(O)CCCC=CCC1C(O)CC(O)C1C=CC(O)COc1ccc(F)cc1` (centres undefined) [CAS_188200] yielded a Ki of 0.32 µM.

The compound `CCCCC[C@@H](O)/C=C/[C@H]1C[C@H]2C[C@@H]([C@@H]1C/C=C\CCCC(=O)O)C2(C)C` [CAS_71111-01-8] showed a Ki of 1.4 µM. This Ki lies about 4.4-fold higher than the previous one.

The compound `CCCCC/C=C\C/C=C\C/C=C\C/C=C\CCCC(=O)O` [[1-14C]Arachidonic acid] displayed a Ki above 10 µM.

The compound `CCCCC[C@H](O)/C=C/[C@H]1C2OC2C(=O)[C@@H]1C/C=C\CCCC(=O)O` (stereo partly drawn) [10alpha,11alpha-oxido PGA2] had a Ki above 10 µM.

For `CCCCCC(C)(O)C=CC1C(O)CC(O)C1CC=CCCCC(=O)O` (centres undefined) [NSC_37255], the Ki is above 10 µM.

Regarding `CCCCC(C)(C)[C@H](O)/C=C/[C@@H]1[C@@H](C/C=C\CCCC(=O)O)[C@@H](O)C[C@H]1O`, the Ki came out at 0.77 µM.

As for `CCCCC[C@H](O)CC[C@H]1c2cc([nH]n2)[C@@H]1CC=CCCCC(=O)O` [9,11-AzoPGH2], the Ki amounted to 1.1 µM.

Consider `O=C(O)CCCC=CCC1C2CCC(C2)C1C=NNC(=O)Nc1ccccc1` (centres undefined) [NSC_5311388], for which the Ki was 0.46 µM.

`CCCCC[C@H](O)/C=C/[C@@H]1[C@@H](C/C=C\CCCC(=O)O)[C@@H]2C[C@H]1OO2` [PGH2]: the Ki was 0.2 µM and 1.6 µM.
